# Test results published in patent US20150266850A1 (E.I.DU PONT DE NEMOURS AND COMPANY, priority 2012, published 2015).
# Marks after values point to notes of the source that are not given here.
# Columns and labels:
# [1] = Photostability Example: aqueous photolysis under xenon arc lamp simulating natural sunlight for 24 hours, percent remaining relative to dark controls; assay type: physicochemical; settings: 0.670 μg/mL in 80/20 10 mM pH 7 phosphate buffer/acetonitrile, xenon arc lamp 24 hours
# Procedure: Aqueous photolysis data is a simple proxy for photostability under field conditions. The following aqueous photolysis data supports the enhanced photostability of the tolyl fungicides of the present invention.
# Test compound (0.670 μg/mL) dissolved in 80/20 10 mM pH 7 phosphate buffer/acetonitrile is added to 2-mL borosilicate glass HPLC vials. The addition of 20% acetonitrile is intended to ensure solubility of compounds with low aqueous solubility. Samples are exposed to light in an Atlas Ci65 Burner photolysis chamber fitted with a xenon arc lamp (6500 W) to simulate natural sunlight for 24 hours and compared with samples wrapped in aluminum foil to protect them from light under the same conditions. The 24-hour irradiation is equivalent to ˜2.6 days of average Delaware summer sunlight exposure. Samples are analyzed by HPLC and results are reported as percent remaining based on peak area relative to the dark controls.
# [2] = test system: Erysiphe graminis f. sp. tritici; assay: Test A: wheat powdery mildew, preventive spray on wheat seedlings, visual disease rating; assay type: in vivo; settings: 100 = 100% disease control; for pest or weed control at 40 ppm / pest or weed control at 200 ppm: Blumeria graminis, 192 h
# Method in brief: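 Preventive test: seedlings inoculated with Erysiphe spores one day after run-off spraying at 200 ppm (or 40/50 ppm) in acetone/water plus surfactant. Kept 8 days at 20° C; visual rating as % disease control versus untreated (100 = full control).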
# [3] = test system: Puccinia recondita f sp. tritici; assay: Test B: wheat leaf rust, preventive spray on wheat seedlings, visual disease rating; assay type: in vivo; settings: 100 = 100% disease control; for pest or weed control at 40 ppm / pest or weed control at 200 ppm: 192 h
# Method in brief: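 Preventive spray to run-off on seedlings, one day before spore inoculation; 24 h in saturated atmosphere at 20° C, then 7 days in a 20° C growth chamber before visual rating (100 = full control, 0 = none, relative to controls). Standard rate 200 ppm, equal to 800 g/ha, some at 40 or 50 ppm; compounds in acetone/water with 250 ppm surfactant.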
# [4] = test system: Septoria tritici; assay: Test C: wheat leaf blotch, preventive spray on wheat seedlings, visual disease rating; assay type: in vivo; settings: 100 = 100% disease control; for pest or weed control at 40 ppm / pest or weed control at 200 ppm: Zymoseptoria tritici, 504 h
# Method in brief: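 Preventive run-off spray on seedlings at 200 ppm (equal to 800 g/ha), some at 40 or 50 ppm, in acetone/water 50/50 plus 250 ppm Trem® 014. Spore inoculation one day later; 24° C. saturated for 48 h, 20° C. chamber 19 days. Disease scored visually as % control relative to controls.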
# [5] = test system: Septoria nodorum; assay: Test D: wheat glume blotch, preventive spray on wheat seedlings, visual disease rating; assay type: in vivo; settings: 100 = 100% disease control; for pest or weed control at 40 ppm / pest or weed control at 200 ppm: Parastagonospora nodorum, 216 h
# Method in brief: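 Disease control (0 = none, 100 = full, relative to controls) was scored visually on wheat seedlings 7 days after a 48 h saturated-humidity incubation at 20° C following Septoria nodorum inoculation. Inoculation came one day after a run-off spray at 200 ppm (some 40 or 50 ppm) in acetone/water plus surfactant.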
# [6] = test system: Botrytis cinerea; assay: Test E: tomato botrytis, preventive spray on tomato seedlings, visual disease rating; assay type: in vivo; settings: 100 = 100% disease control; for pest or weed control at 40 ppm / pest or weed control at 200 ppm: Botrytis cinerea, 120 h
# Method in brief: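 Preventive test: seedlings inoculated with Botrytis cinerea spore suspension one day after run-off spraying (200 ppm ≈ 800 g/ha; some 40 or 50 ppm) in acetone/water with 250 ppm surfactant. Incubation 48 h at 20°C saturated humidity, then 3 days at 27°C; disease control rated visually (0–100%) relative to controls.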
SMILES,% Cmpd Remaining [1],melting point,pest or weed control at 200 ppm ([2]; 200 ppm),pest or weed control at 200 ppm ([3]; 200 ppm),pest or weed control at 200 ppm ([4]; 200 ppm),pest or weed control at 200 ppm ([6]; 200 ppm),other results
COC(=O)NCc1cc(-n2ccc(-c3ccc(OC)cc3OC)n2)ccc1Cl [23P],0%,–,–,–,–,–,–
COC(=O)NCc1cc(-c2ncn(-c3ccc(OC)cc3Cl)n2)ccc1C [Compound 78],–,145 to 148 °C,–,–,–,–,pest or weed control at 40 ppm ([2]; 40 ppm (*)): 99%; pest or weed control at 40 ppm ([3]; 40 ppm (*)): 100%; pest or weed control at 40 ppm ([4]; 40 ppm (*)): 93%; pest or weed control at 40 ppm ([5]; 40 ppm (*)): 100%; pest or weed control at 40 ppm ([6]; 40 ppm (*)): 68%
COC(=O)NCc1cc(-c2ncn(-c3ccc(F)cc3F)n2)ccc1C [Compound 117],–,156 to 159 °C,100%,100%,–,–,–
"COC(=O)NCc1cc(-n2ccc(-c3ccc(Cl)cc3Cl)n2)ccc1C [Compound 31, methyl N-[[5-[3-(2,4-dichlorophenyl)-1H-pyrazol-1-yl]-2-methylphenyl]-methyl]carbamate]",–,101 to 103 °C,100%,100%,100%,16%,pest or weed control at 200 ppm ([5]; 200 ppm): 100%
COC(=O)NCc1cc(-n2ccc(-c3ccc(OC)cc3C)n2)ccc1F [10PP],64%,–,–,–,–,–,–
COC(=O)NCc1cc(-c2ccn(-c3ccc(OC)cc3OC)n2)ccc1C [compound 24],78%,–,–,–,–,–,Test A disease control rating ([2]; 200 ppm): 100%; Test B disease control rating ([3]; 200 ppm): 100%; Test C disease control rating ([4]; 200 ppm): 100%; Test E disease control rating ([6]; 200 ppm): 55%
COC(=O)NCc1cc(-c2ccn(-c3ccc(OC)cc3C)n2)ccc1Cl [18P],0%,–,–,–,–,–,–
"COC(=O)NCc1cc(-c2ccn(-c3ccc(OC)cc3C)n2)ccc1C [Compound 18, methyl N-[[5-[1-(4-methoxy-2-methylphenyl)-1H-pyrazol-3-yl]-2-methylphenyl]methyl]carbamate]",98%,117 to 120 °C,100%,100%,100%,44%,–
COC(=O)NCc1cc(-c2ncn(-c3ccc(Cl)cc3Cl)n2)ccc1C [Compound 119],–,152 to 155 °C,99%,100%,–,–,–
COC(=O)NCc1cc(-n2ncc(-c3ccc(OC)cc3OC)n2)ccc1Cl [17P],0%,–,–,–,–,–,–
COC(=O)NCc1cc(-c2ccn(-c3ccc(OC)cc3OC)n2)ccc1Cl [24P],0%,–,–,–,–,–,–
"COC(=O)NCc1cc(-n2ncc(-c3ccc(OC)cc3OC)n2)ccc1C [Compound 17, methyl N-[[5-[4-(2,4-dimethoxyphenyl)-2H-1,2,3-triazol-2-yl]-2-methylphenyl]methyl]carbamate]",30%,132 to 135 °C,100%,100%,100%,33%,pest or weed control at 200 ppm ([5]; 200 ppm): 100%
COC(=O)NCc1cc(-n2ccc(-c3ccc(OC)cc3OC)n2)ccc1F [23PP],5%,–,–,–,–,–,–
COC(=O)NCc1cc(-c2ncn(-c3ccc(OC)cc3OC)n2)ccc1C [Compound 54],–,174 to 177 °C,–,–,–,–,pest or weed control at 40 ppm ([2]; 40 ppm (*)): 99%; pest or weed control at 40 ppm ([3]; 40 ppm (*)): 100%; pest or weed control at 40 ppm ([4]; 40 ppm (*)): 49%; pest or weed control at 40 ppm ([5]; 40 ppm (*)): 100%; pest or weed control at 40 ppm ([6]; 40 ppm (*)): 49%
"COC(=O)NCc1cc(-c2ncn(-c3ccc(C)cc3C)n2)ccc1C [Compound 118, methyl N-[[5-[1-(2,4-dimethylphenyl)-1H-1,2,4-triazol-3-yl]-2-methylphenyl]methyl]carbamate]",–,148 to 151 °C,99%,100%,–,–,–
"COC(=O)NCc1cc(-n2ccc(-c3ccc(Cl)cc3OC)n2)ccc1C [Compound 11, methyl N-[[5-[3-(4-chloro-2-methoxyphenyl)-1H-pyrazol-1-yl]-2-methylphenyl]-methyl]carbamate]",–,126 to 127 °C,100%,100%,100%,56%,pest or weed control at 200 ppm ([5]; 200 ppm): 100%
"COC(=O)NCc1cc(-n2ccc(-c3ccc(OC)cc3C)n2)ccc1C [Compound 10, methyl N-[[5-[3-(4-methoxy-2-methylphenyl)-1H-pyrazol-1-yl]-2-methylphenyl]-methyl]carbamate]",97%,97 to 99 °C,100%,100%,100%,97%,pest or weed control at 200 ppm ([5]; 200 ppm): 100%
COC(=O)NCc1cc(-n2ccc(-c3ccc(OC)cc3C)n2)ccc1Cl [10P],0%,–,–,–,–,–,–
COC(=O)NCc1cc(-c2ncn(-c3ccc(OC)cc3F)n2)ccc1C [Compound 79],–,164 to 166 °C,–,–,–,–,pest or weed control at 40 ppm ([2]; 40 ppm (*)): 100%; pest or weed control at 40 ppm ([3]; 40 ppm (*)): 100%; pest or weed control at 40 ppm ([4]; 40 ppm (*)): 95%; pest or weed control at 40 ppm ([5]; 40 ppm (*)): 100%; pest or weed control at 40 ppm ([6]; 40 ppm (*)): 76%
"COC(=O)NCc1cc(-n2ccc(-c3ccc(OC)cc3OC)n2)ccc1C [Compound 23, methyl N-[[5-[3-(2,4-dimethoxyphenyl)-1H-pyrazol-1-yl]-2-methylphenyl]methyl]carbamate]",54%,–,100%,100%,100%,66%,pest or weed control at 200 ppm ([5]; 200 ppm): 100%
COC(=O)NCc1cc(-n2ccc(-c3ccc(OC)cc3OCC#N)n2)ccc1C [Cmpd 53],–,–,–,–,–,–,Test A disease control rating ([2]; 200 ppm): 100%; Test B disease control rating ([3]; 200 ppm): 100%; Test C disease control rating ([4]; 200 ppm): 97%; Test D disease control rating ([5]; 200 ppm): 100%; Test E disease control rating ([6]; 200 ppm): 0%
COC(=O)NCc1cc(-n2ncc(-c3ccc(OC)cc3OC)[n+]2[O-])ccc1C [Compound 4],–,–,99%,100%,99%,69%,pest or weed control at 200 ppm ([5]; 200 ppm): 100%
COC(=O)NCc1cc(-n2ncc(-c3ccc(OC)cc3C(F)(F)F)n2)ccc1C [Cmpd 104],–,–,–,–,–,–,Test A disease control rating ([2]; 40 ppm (*)): 98* %; Test B disease control rating ([3]; 40 ppm (*)): 100* %; Test C disease control rating ([4]; 40 ppm (*)): 91* %; Test D disease control rating ([5]; 40 ppm (*)): 100* %; Test E disease control rating ([6]; 40 ppm (*)): 0* %
